Test results as given in article PMC5385491, “Antiviral activity of chlorogenic acid against influenza A (H1N1/H3N2) virus and its inhibition of neuraminidase” (Scientific Reports, 2017).

Biological target: T1, NA of influenza A/PuertoRico/8/1934 (H1N1) virus (Influenza A virus (A/Puerto Rico/8/1934(H1N1)), UniProt P03468)
T1 construct: native viral NA in allantoic fluid of infected embryonated chicken eggs (whole virus, not purified)
Assay: fluorescence NA inhibition assay with MU-NANA
Format: biochemical
Conditions: MU-NANA substrate (30 μl of 80 μM in 100 μl); 10 min preincubation, 30 min reaction, 37 °C; virus-containing allantoic fluid

T1 sequence (P03468 whole entry): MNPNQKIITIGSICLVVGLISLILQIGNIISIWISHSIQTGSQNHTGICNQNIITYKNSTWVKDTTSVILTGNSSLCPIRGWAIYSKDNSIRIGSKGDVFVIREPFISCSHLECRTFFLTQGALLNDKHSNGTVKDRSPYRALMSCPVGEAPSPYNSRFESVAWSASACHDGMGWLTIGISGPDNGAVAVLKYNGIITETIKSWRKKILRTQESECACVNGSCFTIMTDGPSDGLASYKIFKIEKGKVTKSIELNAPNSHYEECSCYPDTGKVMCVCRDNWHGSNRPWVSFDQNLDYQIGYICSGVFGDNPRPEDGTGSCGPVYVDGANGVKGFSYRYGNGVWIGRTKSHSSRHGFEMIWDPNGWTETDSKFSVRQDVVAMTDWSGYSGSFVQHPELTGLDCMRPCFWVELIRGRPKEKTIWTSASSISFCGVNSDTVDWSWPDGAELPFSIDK

Work on `O=C(/C=C/c1ccc(O)c(O)c1)O[C@@H]1C[C@](O)(C(=O)O)C[C@@H](O)[C@H]1O` [CHA, chlorogenic acid] yielded an IC50 of 22.1 ± 1.07 µM.
